US12613249B2 (THE ROYAL INSTITUTION FOR THE ADVANCEMENT OF LEARNING / …, priority 2019, dated 2026)
Square brackets hold non-standard residues; d marks the D form. Peptide text beside a SMILES is read from it.

Tests used:
[1] = Ex-vivo stability in mouse liver S9-fraction, MALDI-TOF MS; format: in vitro ADME, C57BL/6 mice
Experimental: (§1) The stability of D-AIP in mouse plasma, blood and liver S-9 fraction was investigated to ascertain the metabolic resistance towards proteases and enzymatic activities in these matrices. Whole mouse blood obtained from healthy C57BL/6 male and female mice (6 mice in total) were collected in lithium heparin containing tubes, pooled and stored at 4° C. prior to its use. A fraction of the pooled blood was immediately centrifuged at 1500×g for 10 min at 4° C. to obtain the plasma. The whole blood and plasma samples were spiked with PBS (as control) or AIP (L-AIP, D-AIP or sD-AIP respectively) to make a final concentration of 1 ug/mL and incubated at 37° C. Initial samples were withdrawn to represent t=0 prior to incubation and others were withdrawn 1, 3 and 24 h respectively. Fresh mouse liver also obtained from C57BL/6 male and female mice were pooled, homogenized in 0.15 M Potassium chloride (KCl) and centrifuged at 9000×g. The supernatant represents liver homogenate (S-9) fraction which was mixed with other buffers to formulate the liver S-9 mix as previously described (Kolrep et al., 2017, Toxicol In Vitro, 42:161-170). Liver S-9 mix were spiked with AIP to make a final concentration of 1 μg/mL (L-AIP, D-AIP or sD-AIP respectively) and incubated at 37° C. Just after the addition of NADPH, 100 μL aliquot which represents t=0 samples were withdrawn and others were sampled accordingly at predetermined time points. 400 μL of ice cold MeOH was added to the spiked plasma, blood or liver S-9 fraction respectively, to precipitate the microsomal protein. The samples were then vigorously mixed for 30 s to facilitate extraction and centrifuged for 10 minutes at 13000 rpm, the supernatant was subjected to sample clean up by C18 ZipTip (EMD Millipore Corporation), the eluates were spotted with CHCA matrix on the ground steel MALDI-TOF target and analyzed with MALDI-TOF MS. Applying the t=0 peak area as 100% the intensities of the other time points were compared relatively for interpretation. […]

[2] = Ex-vivo stability in mouse whole blood, MALDI-TOF MS; format: in vitro ADME
Experimental: as §1

[3] = Tolerability of single oral doses; format: in vivo, C57BL/6 mice; conditions: single oral doses of 10, 30 and 100 mg/kg, female and male mice
Description: Animal care and all animal experiments were undertaken with federal guidelines and approval of the Institutional Animal Ethical Committee of McGill University, Montreal, Canada (Protocol Application Number: 2017-7880) and adequate measures were taken to minimize pain or discomfort. C57BL/6 mice were purchased from Charles River laboratories, a total of 144 healthy (7-9 weeks old) male and female (20-25 g) were grouped accordingly and housed in polycarbonate cages, (three mice per cage per sex) in air-conditioned rooms with a 12 h light/dark cycle. Animals were allowed unlimited access to drinking water and standard mouse chow during the study. Animals (n=3) were orally dosed with D-AIP using an oral gavage at 10, 30 and 100 mg/kg respectively prepared in phosphate buffered saline (PBS). […] Pharmacokinetic parameters area under the curve (AUC), maximum concentration reached (Cmax), time at which maximum concentration is reached (Tmax). elimination rate constant (A), elimination half-life (t1/2), apparent total clearance from plasma after oral administration (CI/F), apparent volume of distribution (Vd) and mean residence time (MRT) were calculated using PKSolver, a freely available menu-driven add-in program for Microsoft Excel written in Visual Basic for Applications (VBA), for solving problems in pharmacokinetics.

[4] = MALDI-TOF-MSI brain distribution; format: in vivo, C57BL/6 mice; conditions: single oral dose 10 mg/kg, 4 h post-administration, sagittal brain sections
Experimental: Frozen brains were stored at −80° C. until needed for analysis. Serial sagittal brain sections (10 μm thick) obtained using a cryostat (Leica Microsystems CM1100, Wetzlar, Germany), were thaw mounted onto an indium tin oxide (ITO) coated glass slide (Bruker, Bremen, Germany). Glass slides were removed from deep freeze and immediately transferred to a vacuum desiccator. Following 12 h desiccation time, the slides were scanned using a flatbed scanner (HP LaserJet 3055). The α-cyano-4-hydroxy cinnamic acid (CHCA) matrix (10 mg/mL) was prepared in 50% acetonitrile (ACN) containing 0.1% trifluoroacetic acid (TFA). The matrix solution was sonicated for 10 min and centrifuged at 10 000 rpm for 10 min before transfer to the ImagePrep (Bruker Daltonics). […] A standard solution of D-AIP (1 μg/mL was analyzed using matrix assisted laser desorption ionization time of flight mass spectrometry (MALDI TOF MS) operated both at reflectron and MALDI MS/MS (LIFT) modes respectively with the aid of the UltraflExtreme MALDI TOF/TOF 2 KHz smartbeam laser (Bruker Daltonics, Bremen, Germany) and FlexControl acquisition software ran in positive ion mode. The instrument was calibrated using standard peptide mix spotted with CHCA matrix on the ground steel target (Bruker Daltonics, Bremen, Germany) for 500-1500 m/z. Each spectrum was acquired from 500 laser shots. […]

Structure (SMILES): C[C@H](O)[C@@H](NC(=O)CNC(=O)[C@H](N)CCCNC(=N)N)C(=O)N[C@H](Cc1ccccc1)C(=O)N[C@H](CCC(=O)O)C(=O)NCC(=O)N[C@H](CCCCN)C(=O)N[C@H](Cc1ccccc1)C(=O)O [D-AIP] (H-[dR]G[dT][dF][dE]G[dK][dF]-OH; N-terminus and C-terminus assumed)
- stability, MALDI-TOF MS signal (941 m/z) ([1]; mouse liver S9-fraction, 37° C., 24 h): relatively stable over 24 h
- signal intensity compared to the unincubated sample ([1]; mouse liver S-9 fraction, after 24 h): three-fold decreased intensity
- stability, MALDI-TOF MS signal (941 m/z) ([2]; 37° C., 24 h): relatively stable up to 24 h
- metabolised at 24 h, 1 ug/mL ([2]; both sexes, C57BL/6, 24 h incubation, read-out: decrease of signal): ~50%
- tolerability [3]: well-tolerated with no detectable vital signs of abnormalities
- brain distribution [4]: distributed across cortex, hippocampus, thalamus and different other brain regions
